Results from patent publication US5708016A, “Pseudopeptides derived from neurokinins” (Adir et Compagnie, priority 1996, dated 1998).

How the values were obtained:
NK2 receptors = molecular target: T1, NK2 receptors (Oryctolagus cuniculus, UniProt P79218); assay: Isolated smooth muscle: rabbit pulmonary artery without endothelium (RPA) contraction, antagonist pA2; type: biochemical
T1 construct: the rabbit pulmonary artery without endothelium (RPA); from tissue; host or cells: rabbit pulmonary artery without endothelium
T1 sequence (P79218 1-384): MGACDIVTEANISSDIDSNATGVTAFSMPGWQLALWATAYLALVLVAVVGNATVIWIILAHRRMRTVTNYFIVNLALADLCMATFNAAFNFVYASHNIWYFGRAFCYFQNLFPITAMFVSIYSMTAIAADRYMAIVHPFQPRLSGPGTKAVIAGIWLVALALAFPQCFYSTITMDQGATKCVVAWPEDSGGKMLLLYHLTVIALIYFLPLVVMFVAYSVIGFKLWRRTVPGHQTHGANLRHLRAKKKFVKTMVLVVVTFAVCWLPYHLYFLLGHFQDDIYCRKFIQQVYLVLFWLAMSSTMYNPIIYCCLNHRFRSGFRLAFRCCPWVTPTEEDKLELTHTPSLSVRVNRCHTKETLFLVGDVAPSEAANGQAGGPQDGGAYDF
Description: (§1) In order to evaluate the functional activity of the compounds of the invention as neurokinin antagonists, two isolated preparations of smooth muscle were used: the rabbit vena cava (RVC) and the rabbit pulmonary artery without endothelium (RPA), the contractile responses of which are mediated, respectively, by the NK1 and NK2 receptors as shown by D. Jukic et al. (Life Sci. 1991, 49, 1463-1469).
(§2) The antagonist power of the compounds of the invention was expressed in the form of pA2 as defined by O. Arunlakshana and H. O. Schild (Brit. J. Pharmacol. 1959, 14, 48-58).

[1] = system: capsaicin-induced plasma extravasation; assay: Inhibition of capsaicin-induced plasma extravasation in guinea pig bronchi; type: in vivo, guinea pigs; details: iv 5 minutes before capsaicin 200 μg/kg iv, Evans blue
Description: The effect of the compounds on the plasma extravasation caused by intravenous injection of capsaicin (200 μg/kg) in guinea pigs was evaluated in the bronchi according to the method described by Robineau et al (Eur. J. Pharmacol., 1995, 294, 677-684). The accumulation in the bronchi of Evans blue injected IV 1 minute before capsaicin was quantified by spectrophotometry after extraction of the dye with acetone. The inhibitory activity of the compounds via the intravenous route 5 minutes before capsaicin was expressed as a 50% inhibitory dose in comparison to a control group (8 animals per group).

NK1 receptors = molecular target: T2, NK1 receptors (Oryctolagus cuniculus, UniProt G1SEI7); assay: Isolated smooth muscle: rabbit vena cava (RVC) contraction, antagonist pA2; type: biochemical
T2 construct: two isolated preparations of smooth muscle were used: the rabbit vena cava (RVC); from tissue; host or cells: rabbit vena cava
T2 sequence (G1SEI7 1-407): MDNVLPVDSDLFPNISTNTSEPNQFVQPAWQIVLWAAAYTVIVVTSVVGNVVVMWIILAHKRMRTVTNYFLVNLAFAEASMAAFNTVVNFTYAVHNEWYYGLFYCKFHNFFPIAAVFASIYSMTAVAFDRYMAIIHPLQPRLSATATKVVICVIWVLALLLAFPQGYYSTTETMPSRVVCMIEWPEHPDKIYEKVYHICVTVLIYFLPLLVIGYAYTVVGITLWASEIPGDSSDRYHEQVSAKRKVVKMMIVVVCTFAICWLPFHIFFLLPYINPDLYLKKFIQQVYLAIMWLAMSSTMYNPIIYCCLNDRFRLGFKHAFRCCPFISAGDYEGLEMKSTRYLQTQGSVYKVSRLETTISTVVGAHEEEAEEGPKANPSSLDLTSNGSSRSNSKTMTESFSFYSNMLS
Description: as §1, §2

human NK2 receptor = molecular target: T3, human NK2 receptor (Homo sapiens, UniProt P21452); assay: Affinity for the human NK2 receptor on transfected CHO-K1 cells; type: binding; details: CHO-K1 cells transfected with the NK2 receptor
T3 construct: expressed in transfected cells; host or cells: CHO-K1
T3 sequence (P21452 1-398): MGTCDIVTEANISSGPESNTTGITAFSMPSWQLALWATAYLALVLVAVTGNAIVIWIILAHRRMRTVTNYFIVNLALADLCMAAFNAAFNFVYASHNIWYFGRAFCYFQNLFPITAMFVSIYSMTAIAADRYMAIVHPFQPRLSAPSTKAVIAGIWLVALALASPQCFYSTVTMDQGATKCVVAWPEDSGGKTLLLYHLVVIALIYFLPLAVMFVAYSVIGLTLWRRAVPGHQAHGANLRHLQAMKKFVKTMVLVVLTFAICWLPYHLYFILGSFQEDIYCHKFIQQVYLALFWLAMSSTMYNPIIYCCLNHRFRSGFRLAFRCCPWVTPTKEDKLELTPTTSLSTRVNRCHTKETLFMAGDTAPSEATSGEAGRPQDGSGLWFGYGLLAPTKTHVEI
Description: (§3) The affinity for the human NK1 and NK2 receptors was studied on IM-9 human lymphoblasts specifically expressing the NK1 receptor as described by D. G. Payan et al. (J. Biol. Chem. 1986, 261, 14321-14329) and on CHO-K1 cells transfected with the NK2 receptor according to the CellPhect transfection kit (Pharmacia).

human NK1 receptor = molecular target: T4, human NK1 receptor (Homo sapiens, UniProt P25103); assay: Affinity for the human NK1 receptor on IM-9 human lymphoblasts; type: binding
T4 construct: IM-9 human lymphoblasts specifically expressing the NK1 receptor; endogenous in cells; host or cells: IM-9 human lymphoblasts
T4 sequence (P25103 whole entry): as the sequence (G1SEI7 1-407) above, with F12S, D189N, A369P, E371D, N376T, G386C, N391D, Y402S, M405V counted along it
Description: as §3

[2] = system: substance P-induced bronchoconstriction; assay: Inhibition of substance P-induced bronchoconstriction in guinea pigs; type: in vivo
Description: The study is carried out on male Hartley guinea pigs (Charles River) weighing 300 to 400 g on average. The study is carried out on anesthetized (ethyl carbamate 1.5 g/kg) and Flaxedilcurarized (0.2 mg/kg iv) animals ventilated at a rate of 60 per minute and a volumetric flow of 10ml/kg. The animals are pretreated with pyrilamine (1 mg/kg iv) and propranolol (1 mg/kg iv).
The criterion of judgment of bronchoconstriction is the increase in tracheal insufflation pressure (TIP) induced by the iv injection of substance P at a dose of 2 nM/kg iv, each animal being its own control. Injection of the test product is performed with reference to the time TO of the injection of the product.
The results are expressed as a dose inhibiting substance P-induced bronchoconstriction by 50%, this percentage being calculated according to the following formula: (ΔTIP before product-ΔTIP after product)/ΔTIP before product (expressed as a percentage).

Compound: O=C(OCc1cc(C(F)(F)F)cc(C(F)(F)F)c1)[C@H](Cc1c[nH]c2ccccc12)NC(=O)[C@@H]1C[C@@H](O)CN1C(=O)c1cn(CCCCc2nnn[nH]2)c2ccccc12.[K] [Example 1, {1-[4-(1H-Tetrazol-5-yl)butyl]-3-indolyl}carbonyl-Hyp-Trp-OBzl(3,5-ditrifluoromethyl) potassium salt]
- pA2 in relation to the NK2 receptors (NK2 receptors): 5.2
- ED50, inhibition of capsaicin-induced plasma extravasation [1]: 0.026 mg/kg
- pA2 in relation to the NK1 receptors (NK1 receptors): 8.9
- Ki (human NK2 receptor): 4200 nM
- Ki (human NK1 receptor): 2.4 nM
- ED50, dose inhibiting substance P-induced bronchoconstriction by 50% ([2]; anesthetized guinea pigs, substance P 2 nM/kg iv, tracheal insufflation pressure): 0.06 mg/kg
- Potency relative to compound of Example 1 of Patent EP 684,257 ([2]; substance P-induced bronchoconstriction, guinea pigs): two and a half times as potent
